Results taken from patent US8486434B2, “Medical implant containing an antioxidative substance” (Biotronik VI Patent AG, priority 2009, dated 2013).

Assay: toxicity of isoprenoids (compatibility with the body)
Details: in concentrations of 10 μmol/l
From the text: Thus, for example, lycopene and ubichinon are already toxic in concentrations of 10 μmol/l. Squalene, on the other hand, is not toxic, even in concentrations of 100 μmol/l.

## ubichinon
  toxicity: toxic
